Values joined by “and” are separate entries in the source; they are usually repeats but may differ in a detail not shown here. Identical values can stand only once. “Also recorded” adds a separate entry of the source.
Key:
[1] = Cell viability / MTT assay; type: cell-based, human; settings: human, S10-3 human hepatoma cells
[2] = test system: S10-3 human hepatoma cells; assay: Cell viability / MTT assay; type: cell-based; settings: highest concentration tolerated by S10-3 cells, MTT, 120 h
HEV-1 [3] = assay: HEV-1 subgenomic replicon Renilla luciferase assay in S10-3 cells; type: cell-based, Hepatitis E virus; settings: for HEV-1 inhibition (%): subgenomic replicon, at MNTD: RBV 3.12 µM, CQ 0.06 µM, HCQ 0.78 µM, ART 23.43 µM, 48 h
HEV-1 [4] = assay: ORF2 protein expression by immunofluorescence assay and western blot; type: cell-based, Hepatitis E virus; settings: IFA and western blot, 72 h and 96 h post-transfection, RBV 3.1 µM, ART 23.4 µM
HEV-1 helicase = biological target: T1, HEV-1 helicase (Hepatitis E virus genotype 1, UniProt P33424); assay: Colorimetric ATPase assay of recombinant helicase; type: biochemical
T1 sequence (P33424 960-1204): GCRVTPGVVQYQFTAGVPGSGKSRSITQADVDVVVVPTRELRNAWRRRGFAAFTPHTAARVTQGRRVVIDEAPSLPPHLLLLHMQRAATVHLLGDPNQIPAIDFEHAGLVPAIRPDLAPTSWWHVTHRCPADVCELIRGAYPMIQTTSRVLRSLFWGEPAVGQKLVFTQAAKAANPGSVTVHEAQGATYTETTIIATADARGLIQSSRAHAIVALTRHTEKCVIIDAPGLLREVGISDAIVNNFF

HEV-1 RdRp = biological target: T2, HEV-1 RdRp (Hepatitis E virus genotype 1, UniProt P33424); assay: Colorimetric RdRp polymerase assay; type: biochemical
T2 sequence (P33424 1199-1693 limits assumed): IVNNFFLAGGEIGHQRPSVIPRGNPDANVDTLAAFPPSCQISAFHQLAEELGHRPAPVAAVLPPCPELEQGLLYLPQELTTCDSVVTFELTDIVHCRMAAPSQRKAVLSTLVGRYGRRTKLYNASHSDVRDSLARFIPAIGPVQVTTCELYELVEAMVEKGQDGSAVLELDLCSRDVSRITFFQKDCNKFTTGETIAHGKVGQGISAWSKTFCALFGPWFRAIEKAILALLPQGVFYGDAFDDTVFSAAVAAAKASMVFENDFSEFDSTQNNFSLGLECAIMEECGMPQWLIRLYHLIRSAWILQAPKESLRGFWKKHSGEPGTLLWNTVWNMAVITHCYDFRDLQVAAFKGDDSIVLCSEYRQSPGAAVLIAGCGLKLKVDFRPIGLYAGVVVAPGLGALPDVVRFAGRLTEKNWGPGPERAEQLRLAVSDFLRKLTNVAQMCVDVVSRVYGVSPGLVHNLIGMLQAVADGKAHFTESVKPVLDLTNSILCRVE

[5] = oral administration; cited from earlier work
[6] = in silico toxicity studies, cited from earlier work

C[C@H]1[C@H](OC(=O)CCC(=O)O)O[C@@H]2O[C@@]3(C)CC[C@H]4[C@H](C)CC[C@@H]1[C@@]24OO3 [ART, artesunate]
CC50 at 120 h [1]: 189 ± 14.1 µM
MNTD, maximum nontoxic dose [2]: 23.43 µM
TI for HEV-1, therapeutic index (CC50/EC50) (HEV-1 [3]; CC50/EC50): 9.68
HEV-1 inhibition (%) (HEV-1 [3]): > 50%
ORF2 protein levels (HEV-1 [4]): decreased ORF2 levels; also recorded: reduced ORF2 expression significantly
Reversibility of helicase inhibition (HEV-1 helicase): reversible
Helicase ATPase activity inhibition (%) (HEV-1 helicase; 4.8 µM ART, 100 µM ATP): 23%
Helicase ATPase activity inhibition (%) (HEV-1 helicase; 78 µM ART, 100 µM ATP): 55% and ~ 55%
Mode of inhibition of helicase ATPase (HEV-1 helicase; ATP pretreatment assay): competitive inhibitor
Mode of inhibition of helicase ATPase (HEV-1 helicase; enzyme pretreated with ART): noncompetitive inhibitor
ATPase activity (%) (HEV-1 helicase; helicase pre-incubated with 19.5 µM ART 30 min, 50 µM ATP): 62%
ATPase activity (%) (HEV-1 helicase; helicase pre-incubated with 19.5 µM ART 30 min, 100 µM ATP): 75%
ATPase activity (%) (HEV-1 helicase; helicase pre-incubated with ATP 30 min before 19.5 µM ART, 50 µM ATP): ~ 79%
ATPase activity (%) (HEV-1 helicase; helicase pre-incubated with ATP 30 min before 19.5 µM ART, 100 µM ATP): 86%
RdRp polymerase activity inhibition (%) (HEV-1 RdRp; 4.8 µM ART): 38%
RdRp polymerase activity inhibition (%) (HEV-1 RdRp; 78 µM ART): 40%
Elimination half-life [5]: 21 to 72 min
Tmax [5]: less than one hour
Mutagenic, tumorigenic and hepatotoxic potential ([6]; if used in high doses for a long time): moderately mutagenic, tumorigenic, and hepatotoxic
Risk of reproductive or developmental toxicity [6]: no risk

CCN(CC)CCCC(C)Nc1ccnc2cc(Cl)ccc12 (stereo not shown) [CQ, chloroquine]
CC50 at 120 h [1]: 4.77 ± 0.74 µM
MNTD, maximum nontoxic dose [2]: 0.06 µM
HEV-1 inhibition (%) (HEV-1 [3]): 23 ± 2%

CCN(CCO)CCCC(C)Nc1ccnc2cc(Cl)ccc12 (stereo not shown) [HCQ, hydroxychloroquine]
MNTD, maximum nontoxic dose [2]: 0.78 µM

NC(=O)c1ncn([C@@H]2O[C@H](CO)[C@@H](O)[C@H]2O)n1 [RBV, ribavirin]
CC50 at 120 h [1]: 39 ± 5.9 µM
MNTD, maximum nontoxic dose [2]: 3.12 µM
ORF2 protein levels (HEV-1 [4]): decreased ORF2 levels; also recorded: reduced ORF2 expression significantly

NC(=O)c1ncn([C@@H]2O[C@H](CO[P@@](=O)(O)O[P@](=O)(O)OP(=O)(O)O)[C@@H](O)[C@H]2O)n1 [RTP, Ribavirin triphosphate]
CC50 at 120 h [1]: 169 ± 1.6 µM
MNTD, maximum nontoxic dose [2]: 7.8 µM
Helicase ATPase activity inhibition (%) (HEV-1 helicase; 3.5 µM RTP, 100 µM ATP): 22%
inhibition at 28 µM (HEV-1 RdRp; read-out: RdRp polymerase activity inhibition (%), 28 µM RTP (maximum)): 28%

From publication PMC10141844 (Archives of Virology, 2023)
